Laboratory results published in US20230159445A1, “STAT INHIBITORY COMPOUNDS AND COMPOSITIONS” (JANPIX LIMITED, priority 2020, published 2023).
pIC50: −log10 of the molar value. Where two headings read alike, the source gives them in different places.

What was measured:
MV4-11 cells = experiment: MV4-11 Cell Cytotoxicity Assay (CellTiter-Blue, 72 h); type: cell-based, human; conditions: Homo sapiens
Summary of the method: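 Cells seeded 24 h before treatment, then exposed 72 h at 37° C, 5% CO2 to inhibitors in triplicate, top concentration 50 μM with 1:2 serial dilutions (0.5% DMSO vehicle). Viability read by CellTiter-Blue fluorescence at 560/590 nm after 1 h.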

glutathione (GSH) = experiment: Reactivity Profiling with Glutathione (GSH), half-life by HPLC; conditions: 5 mM glutathione (GSH) in IMDM with 10% FBS
[1] = tested on: normal human fibroblast (NHF) cells; experiment: NHF Cell Cytotoxicity Assay (CellTiter-Blue, 72 h), off-target effects; type: cell-based; conditions: Homo sapiens, Fibroblast; pooled NHF cells
Summary of the method: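 Normal human fibroblasts (1×10^4/well, 10% FBS medium) were treated after 24 h with inhibitor at 0.097656-50 μM for 72 h at 37° C. Viability was read by CellTiter-Blue fluorescence (560/590 nm), normalized to DMSO control, and IC50 obtained from a variable-slope log(inhibitor)-response fit of four replicates.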

[2] = Reactivity Profiling with Glutathione (GSH), half-life by HPLC; conditions: 5 mM glutathione, 25° C., HPLC
[3] = MV4-11 cells, 72 h, CellTiter-Blue, read-out: IC50- MV-4-11

Row | SMILES | pIC50 (MV4-11 cells; MV4-11, MV-4-11 cells) | half-life at 25 μM (glutathione (GSH)) | pIC50 [1] | pIC50 (MV4-11 cells; [3]) | Tl/2- GSH [2]
1 | C#CCOc1cc(C(=O)O)ccc1N(Cc1cc(C2CC2)cc(C2CC2)c1)C(=O)CN(Cc1ccc(F)cc1Cl)S(=O)(=O)c1c(F)c(F)c(F)c(F)c1F [Compound 1258, 4-(2-(N-(2-chloro-4-fluorobenzyl)-(2,3,4,5,6-pentafluorophenyl)sulfon-amido)-N-(3,5-dicyclopropylbenzyl)acetamido)-3-(prop-2-yn-1-yloxy)benzoic acid] | 6.50 to 11.00 | 0.00167 to 2.37 h | 4.70 to 5.00 |  | 
2 | CCOc1cc(C(=O)O)ccc1N(Cc1cc(C2CC2)cc(C(C)(C)C)c1)C(=O)CN(Cc1ccccc1C#N)S(=O)(=O)c1c(F)c(F)c(F)c(F)c1F [Compound 1272, 4-(N-(3-(tert-butyl)-5-cyclopropylbenzyl)-2-((N-(2-cyanobenzyl)-2,3,4,5,6-pentafluorophenyl)sulfonamido)acetamido)-3-ethoxybenzoic acid] | 6.50 to 11.00 | 2.37 to 4.12 h | 4.70 to 5.00 |  | 
3 | CCOc1cc(C(=O)O)ccc1N(Cc1cc(C2CC2)cc(C2CC2)c1)C(=O)CN(Cc1ccccc1C#N)S(=O)(=O)c1c(F)c(F)c(F)c(F)c1F [Compound 1273, 4-(2-((N-(2-cyanobenzyl)-2,3,4,5,6-pentafluorophenyl)sulfonamido)-N-(3,5-dicyclopropylbenzyl)acetamido)-3-ethoxybenzoic acid] | 6.50 to 11.00 | 0.00167 to 2.37 h | 4.70 to 5.00 |  | 
4 | CCOc1cc(C(=O)O)cc(F)c1N(Cc1cc(C2CC2)cc(C2CC2)c1)C(=O)CN(Cc1ccccc1C#N)S(=O)(=O)c1c(F)c(F)c(F)c(F)c1F [Compound 1274, 4-(2-((N-(2-cyanobenzyl)-2,3,4,5,6-pentafluorophenyl)sulfonamido)-N-(3,5-dicyclopropylbenzyl)acetamido)-3-ethoxy-5-fluorobenzoic acid] | 6.50 to 11.00 | 2.37 to 4.12 h | 4.70 to 5.00 |  | 
5 | CCOc1cc(C(=O)O)cc(F)c1N(Cc1cc(C2CC2)cc(C2CC2)c1)C(=O)CN(Cc1ccc(F)cc1Cl)S(=O)(=O)c1c(F)c(F)c(F)c(F)c1F [Compound 1276, 4-(2-((N-(2-chloro-4-fluorobenzyl)-2,3,4,5,6-pentafluorophenyl)sulfonamido)-N-(3,5-dicyclopropylbenzyl)acetamido)-3-ethoxy-5-fluorobenzoic acid] | 6.50 to 11.00 | 4.12 to 9.23 h | 4.70 to 5.00 |  | 
6 | CCOc1cc(C(=O)O)ccc1N(Cc1cc(C2CC2)cc(C(C)(C)C)c1)C(=O)CN(Cc1cnccc1Cl)S(=O)(=O)c1c(F)c(F)c(F)c(F)c1F [Compound 1277, 4-(N-(3-(tert-butyl)-5-cyclopropylbenzyl)-2-((N-((4-chloropyridin-3-yl)methyl)-2,3,4,5,6-pentafluorophenyl)sulfonamido)acetamido)-3-ethoxybenzoic acid] | 6.50 to 11.00 | 0.00167 to 2.37 h | 5.00 to 9.00 |  | 
7 | CCOc1cc(C(=O)O)ccc1N(Cc1cc(C2CC2)cc(C2CC2)c1)C(=O)CN(Cc1ccccc1Cl)S(=O)(=O)c1c(F)c(F)c(F)c(F)c1F [Compound 1278, 4-(2-((N-(2-chlorobenzyl)-2,3,4,5,6-pentafluorophenyl)sulfonamido)-N-(3,5-dicyclopropylbenzyl)acetamido)-3-ethoxybenzoic acid] | 6.50 to 11.00 | 2.37 to 4.12 h | 4.70 to 5.00 |  | 
8 | N#Cc1ccccc1CN(CC(=O)N(Cc1cc(C2CC2)cc(C2CC2)c1)c1ccc(C(=O)O)cc1OC1CCCC1)S(=O)(=O)c1c(F)c(F)c(F)c(F)c1F [Compound 1279, 4-(2-((N-(2-cyanobenzyl)-2,3,4,5,6-pentafluorophenyl)sulfonamido)-N-(3,5-dicyclopropylbenzyl)acetamido)-3-(cyclopentyloxy)benzoic acid] | 6.50 to 11.00 | 4.12 to 9.23 h | 4.70 to 5.00 |  | 
9 | CC(C)Oc1cc(C(=O)O)ccc1N(Cc1cc(C2CC2)cc(C2CC2)c1)C(=O)CN(Cc1ccccc1C#N)S(=O)(=O)c1c(F)c(F)c(F)c(F)c1F [Compound 1280, 4-(2-((N-(2-cyanobenzyl)-2,3,4,5,6-pentafluorophenyl)sulfonamido)-N-(3,5-dicyclopropylbenzyl)acetamido)-3-isopropoxybenzoic acid] | 6.50 to 11.00 | 2.37 to 4.12 h | 4.70 to 5.00 |  | 
10 | CCOc1cc(C(=O)O)ccc1N(Cc1cc(C2CC2)cc(N2CCCC2)c1)C(=O)CN(Cc1ccccc1C#N)S(=O)(=O)c1c(F)c(F)c(F)c(F)c1F [Compound 1281, 4-(2-((N-(2-cyanobenzyl)-2,3,4,5,6-pentafluorophenyl)sulfonamido)-N-(3-cyclopropyl-5-(pyrrolidin-1-yl)benzyl)acetamido)-3-ethoxybenzoic acid] | 6.50 to 11.00 | 2.37 to 4.12 h | 4.70 to 5.00 |  | 
11 | CC(C)(C)c1cc(CN(C(=O)CN(Cc2ccc(Cl)cc2)S(=O)(=O)c2c(F)c(F)c(F)c(F)c2F)c2ccc(C(=O)O)c(O)c2)cc(C(C)(C)C)c1 [Compound 2001, 4-(2-(N-(4-chlorobenzyl)-(2,3,4,5,6-pentafluorophenyl)sulfon-amido)-N-(3,5-di-tert-butylbenzyl)acetamido)-2-hydroxybenzoic acid] |  |  |  | 4.00 to 5.50 | B (247≤B<554)
12 | O=C(O)c1ccc(N(Cc2ccccc2)C(=O)CN(Cc2ccc(Cl)cc2)S(=O)(=O)c2c(F)c(F)c(F)c(F)c2F)cc1O [Compound 2004, 4-(N-benzyl-2-(N-(4-chlorobenzyl)-(2,3,4,5,6-pentafluorophenyl)sulfon-amido)acetamido)-2-hydroxybenzoic acid] |  |  |  | 4.00 to 5.50 | D (0.1<D<142)
13 | CC(C)(C)c1cc(CN(C(=O)CN(Cc2ccccc2F)S(=O)(=O)c2c(F)c(F)c(F)c(F)c2F)c2ccc(C(=O)O)c(O)c2)cc(C(C)(C)C)n1 [Compound 2015, 4-(N-((2,6-di-tert-butylpyridin-4-yl)methyl)-2-(N-(2-fluorobenzyl)-(2,3,4,5,6-pentafluoro-phenyl)sulfonamido)acetami-do)-2-hydroxybenzoic acid] |  |  |  | 4.00 to 5.50 | C (142≤C<247)
14 | CN(C(=O)CN(Cc1ccccc1C(F)(F)F)S(=O)(=O)c1c(F)c(F)c(F)c(F)c1F)c1ccc(C(=O)O)cc1OC1CC1 [Compound 2016, 3-cyclopropoxy-4-(N-methyl-2-(N-(2-(trifluoromethyl)benzyl)-(2,3,4,5,6-pentafluoro-phenyl)sulfonamido)acetami-do)benzoic acid] |  |  |  | 5.50 to 6.00 | D (0.1<D<142)
15 | CN(C(=O)CN(Cc1ccccc1C(F)(F)F)S(=O)(=O)c1c(F)c(F)c(F)c(F)c1F)c1ccc(C(=O)O)cc1N1CCOCC1 [Compound 2017, 4-(N-methyl-2-(N-(2-(trifluoromethyl)benzyl)-(2,3,4,5,6-pentafluoro-phenyl)sulfonamido)acetami-do)-3-morpholinobenzoic acid] |  |  |  | 5.50 to 6.00 | D (0.1<D<142)
16 | CC(C)(C)c1cc(CN(C(=O)CN(Cc2ccc(Cl)cc2)S(=O)(=O)c2c(F)c(F)c(F)c(F)c2F)c2ccc(C(=O)O)c(O)c2)cc(C2CCC2)c1 [Compound 2020, 4-(N-(3-(tert-butyl)-5-cyclobutylbenzyl)-2-(N-(4-chlorobenzyl)-(2,3,4,5,6-pentafluorophenyl)sulfon-amido)acetamido)-2-hydroxybenzoic acid] |  |  |  | 4.00 to 5.50 | B (247≤B<554)
